Reference: US9084766B2, “Compounds and compositions for targeting cancer stem cells” (Boston Biomedical, Inc., priority 2010, dated 2015)
“Also recorded” adds a separate entry of the source. Like-named read-outs stand apart in the source and are kept apart here.

Legend:
[1] = Pharmacokinetics in mice of particle size formulations; type: in vivo; conditions: particle size 125-150 micron versus 2 and 20 micron, 100 mg/kg oral, 20% Gelucire 44/14 and 1% Tween 80
Experimental: In an experiment, micronized Compound 1 prepared in step 6 of Example 2 with a mean particle size of 2 micron, 20 microns, 150 microns were formulated as suspensions in 20% Gelucire 44/14 and 1% Tween 80 and administered orally to mice at 100 mg/kg. Each time point represents the average of 3 mice (FIG. 16).

CD34+ BM Erythroid = assay: IC50 versus treatment time, CD34+ BM Erythroid; type: cell-based; conditions: normal cells CD34+ BM Erythroid, treatment time 12-24 h
Experimental: (§1) The studies described herein discovered counter-intuitively that cancer cells and cancer stem cells requires much shorter exposure than normal cells to be killed by Compound 1. Normal cells can tolerate up to 24 hours of exposure to Compound 1. Furthermore, the studies here discovered that normal cells can recover after a short period of no-drug exposure, while cancer cells cannot recover once they are exposed to a certain concentration of the Compound 1 for at least 2 hours. Based on these studies, a special pharmacokinetic exposure [termed selective pharmacokinetic profile (SPP), or preferred pharmacokinetic profile (PPP), which is used interchangeably in this publication] was designed for Compound 1 using the data shown below in Table 14 for achieving selective antitumor activity in patients (FIG. 24).

[2] = test system: cancer cells or cancer stem cells; assay: In vitro IC50 on cancer cells or cancer stem cells; type: cell-based
[3] = previous studies; cited from earlier work
[4] = test system: cancer cells and normal cells; conditions: Hirai et al. 1999; Takano et al. 2009; previous studies; cited from earlier work
CD34+ BM Myeloid = assay: IC50 versus treatment time, CD34+ BM Myeloid; type: cell-based; conditions: normal cells CD34+ BM Myeloid, treatment time 12-24 h
Experimental: as §1

[5] = test system: cancer cells and normal cells; assay: Exposure time/concentration selectivity, cancer cells versus normal cells; type: cell-based
Experimental: as §1
Preferably, cancer cells must be exposed to a Compound of the Invention such as Compound 1, particles, polymorphs and/or purified forms thereof for 4 hours at concentration greater than 0.2 μM in order to induce cancer cell death. […] A reduced particle size of Compound 1 achieved this preferred pharmacokinetic pattern and selective activity.
The selective activity of Compound 1 in killing cancer cells and sparing normal cells is represented by the data in Table 14 and illustrated in FIG. 24.

DU145 = assay: IC50 versus treatment time, DU145; type: cell-based; conditions: DU145 cancer cells
Experimental: as §1

[6] = test system: FaDu human head and neck cancer; assay: Antitumor activity in subcutaneous FaDu xenograft mice; type: in vivo
Experimental: In the studies shown in FIG. 8, immunosuppressed mice with established subcutaneous FaDu human head and neck cancer were given indicated amount of hand grounded Compound 1 with Crystal Form 1, or vehicle control orally (po). Compound 1 was formulated in […]™. All regimens were administered daily (qd). Tumor sizes were evaluated periodically during treatment.
In the study shown in FIG. 9, immunosuppressed mice with established subcutaneous FaDu human head and neck cancer were given 100 mg/kg of micronized Compound 1 produced with the synthetic process described in FIGS. 5A and 5B (first crop), or vehicle control orally (po). Compound 1 was formulated in […]™. All regimens were administered daily (qd). Tumor sizes were evaluated periodically during treatment. Form 2 has been successfully manufactured by a current good manufacturing practice (cGMP) process and received approval from the FDA and Health Canada to be used in clinical trials.
Form 3 can only be generated from Form 1 using a specially designed slurry process described herein. […] In the study shown in FIG. 10, immunosuppressed mice with established subcutaneous FaDu human head and neck cancer were given 200 mg/kg of Compound 1 with hand grounded Crystal Form 1 or Form 3, or vehicle control orally (po). Compound 1 was formulated in gelucire. All regimens were administered daily (qd). Tumor sizes were evaluated periodically during treatment. This polymorph has been successfully manufactured by a cGMP process and received approval from FDA and Health Canada to be used in clinical trials.
The anti-tumor activity of particles of Compound 1 with different particle size ranges is illustrated in FIG. 15, and the pharmacokinetic data for particles of Compound 1 with different particle size ranges is illustrated in FIGS. 16-18. In the study shown in FIG. 15, immunosuppressed mice with established subcutaneous FaDu human head and neck cancer were given indicated amount of Compound 1 with indicated particle size, or vehicle control orally (po). All regimens were administered daily (qd). Tumor size was evaluated periodically.
In an experiment, a formulation of Compound 1 particles sieved to 160 micron was tested in the model of immunosuppressed mice with established subcutaneous xenograft FaDu human head and neck cancer. The pharmaceutical composition was formulated as 80 mg/ml in 9% Gelucire, 20% Vitamin E TPGS (Table 3). […] All regimens were administered daily (qd).
In an experiment, Compound 1 crystals were milled to a median particle size of about 20 micron. […] All regimens were administered daily (qd).
FaDu human head and neck cancer cells were inoculated subcutaneously into female athymic nude mice (6×10^6 cells/mouse) and allowed to form palpable tumors. When the tumors reached approximately 100 mm^3, the animals were treated orally (po) with Compound 1 at 100 mg/kg or vehicle control daily. Compound 1 was formulated at 10 mg/ml in 20% gelucire. Tumors and bodyweights were measured throughout treatment (FIG. 15).
Daily examinations into the health status of each animal were also conducted. Body weights were checked every three days. Food and water was supplied daily according to the animal husbandry procedures of the facility. Treatment producing>20% lethality and or >20% net body weight loss were considered toxic. Results are expressed as mean tumor volume (mm^3)±SE. P Values<0.05 are considered to be statistically relevant.
Male or female athymic nude mice 4-5 weeks (Charles River Laboratories, Wilmington, Mass.), were acclimated to the animal housing facility for at least 1 week before study initiation. […]

PMBCs = assay: IC50 versus treatment time, PMBCs; type: cell-based; conditions: normal cells PMBCs
Experimental: as §1

With `CC(=O)c1cc2c(o1)C(=O)c1ccccc1C2=O` [Compound 1, 2-acetyl-4H,9H-naphtho[2,3-b]furan-4,9-dione] the plasma exposure [1] was “lower level of exposure”, the IC50 (CD34+ BM Erythroid) was over 30 µM and the IC50 ([2]; preclinical studies, read-out: IC50 to kill cancer cells or cancer stem cells) was 0.1 to 0.2 µM. The IC50 ([2]; read-out: IC50 of the compound in vitro) was 0.03 to 0.5 µM, the “antitumor activity in animal model” value [3] was “no antitumor activity was observed” and the “toxicity to cancer cells and normal cells” value [4] was “equally toxic to normal and cancer cells; also recorded: equally toxic to cancer cells and normal cells”. For the same molecule, the IC50 (CD34+ BM Myeloid) was over 30 µM, the selectivity ([5]; concentration greater than from about 0.5 to about 3 μM for less than 24 hours) was “selective activity in killing cancer cells and sparing normal cells” and the selectivity ([5]; concentrations of about or above 0.2 and 30 μM for from about 4 hours up to about 24 hours) was “selective killing of cancer cells and sparing of normal cells”. For the same molecule, the “killing of cancer cells” value ([5]; concentrations of less than 0.5 μM, regardless of exposure time) was “no killing of cancer cells”, the selectivity ([5]; continuous exposure for greater than 24 hours) was “loss of selectivity” and the “exposure time tolerated by normal cells” value ([5]; normal cells) was “up to 24 hours”. The IC50 (DU145; treatment time 12-24 h) was under 0.2 µM, the IC50 (DU145; Homo sapiens, DU-145, treatment time 4-12 h) was under 0.2 µM and the anti-tumor activity ([6]; composition of particle size less than 5 micron, mice) was “potent anti-tumor activity”. For the same molecule, the efficacy ([6]; composition with particle size greater than 20 micron, mice) was “no or weak efficacy”, the efficacy ([6]; median particle size about 2 micron, 100 mg/kg po daily, 20% gelucire, 100 mg/kg) was “surprisingly enhanced anti-tumor activity; also recorded: good efficacy; also recorded: strong efficacy; also recorded: potent efficacy” and the efficacy ([6]; median particle size about 2 micron, 100 mg/kg po daily, 20% gelucire, listed as naphthofuran compound, 100 mg/kg) was “dramatically enhanced efficacy”. The efficacy ([6]; median particle size about 20 micron, 200 mg/kg daily oral, 200 mg/kg) was “weak or moderate efficacy”, the efficacy ([6]; median particle size about 20 micron, 200 mg/kg daily oral, listed as naphthofuran compound, 200 mg/kg) was “relative weak” and the anti-tumor activity ([6]; nanoparticles, D50 about 100 nanometers (110.4 nanometers)) was “reduction of anti-tumor activity”. The efficacy ([6]; particles sieved to 160 micron (150 micron), 400 mg/kg daily oral, 400 mg/kg) was “no efficacy”, the efficacy ([6]; particles sieved to 160 micron (150 micron), 400 mg/kg daily oral, listed as naphthofuran compound, 400 mg/kg) was “no efficacy” and the IC50 (PMBCs; treatment time 12-24 h) was 14 µM. For the same molecule, the IC50 (PMBCs; treatment time 72 h) was 3 µM.
